Experimental data as given in the supplement of paper PMC10307832.

Columns and labels:
Assay in all cases: relative viability (nuclei count vs DMSO), 5 days (fraction); higher = more cells survive
AZ628 + Bortezomib = compound: CC1=C(C=C(C=C1)NC(=O)C2=CC(=CC=C2)C(C)(C)C#N)NC3=CC4=C(C=C3)N=CN(C4=O)C [AZ628] + CC(C)C[C@H](NC(=O)[C@H](Cc1ccccc1)NC(=O)c1cnccn1)B(O)O [Bortezomib] (partner 0.002 µM)
In short: (§1)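 The day after seeding in 1536-well plates, lung cancer cell lines were treated by pin tool with a single drug, or with a fixed anchor-drug dose together with five library-drug doses (not always all listed) in √10 steps. After 5 days, a combined fix-and-stain solution (final 0.05% Triton X-100, 1% formaldehyde, 1 ug/ml Hoechst) was added. Nuclei counted on 4× images gave relative viability as treated counts over vehicle counts, reported as the median of duplicate plates.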

AZ628 + Foretinib = compound: CC1=C(C=C(C=C1)NC(=O)C2=CC(=CC=C2)C(C)(C)C#N)NC3=CC4=C(C=C3)N=CN(C4=O)C [AZ628] + COc1cc2c(Oc3ccc(NC(=O)C4(C(=O)Nc5ccc(F)cc5)CC4)cc3F)ccnc2cc1OCCCN1CCOCC1 [Foretinib] (partner 0.25 µM)
In short: as §1

QS11 + Decitabine = compound: C1CC2=C(C1)C=C(C=C2)OC3=NC(=C4C(=N3)N(C=N4)CC5=CC=C(C=C5)C6=CC=CC=C6)N[C@@H](CC7=CC=CC=C7)CO [QS11] + Nc1ncn([C@H]2C[C@H](O)[C@@H](CO)O2)c(=O)n1 [Decitabine] (partner 2 µM)
In short: as §1

Cell Line	relative viability (AZ628 + Bortezomib; first compound 0.08 µM)	relative viability (AZ628 + Bortezomib; first compound 0.253 µM)	relative viability (AZ628 + Bortezomib; first compound 0.8 µM)	relative viability (AZ628 + Bortezomib; first compound 2.53 µM)	relative viability (AZ628 + Bortezomib; first compound 8 µM)	relative viability (AZ628 + Foretinib; first compound 0.08 µM)	relative viability (AZ628 + Foretinib; first compound 0.253 µM)	relative viability (AZ628 + Foretinib; first compound 0.8 µM)	relative viability (AZ628 + Foretinib; first compound 2.53 µM)	relative viability (AZ628 + Foretinib; first compound 8 µM)	relative viability (QS11 + Decitabine; first compound 0.08 µM)	relative viability (QS11 + Decitabine; first compound 0.253 µM)	relative viability (QS11 + Decitabine; first compound 2.53 µM)	relative viability (QS11 + Decitabine; first compound 8 µM)	relative viability (QS11 + Decitabine; first compound 0.8 µM)
LCLC-103H	0.932	1.13	1.09	1.02	1.18	0.724	0.753	0.802	0.729	0.853	0.701	0.815	0.756	0.711	
LK-2						1.42	0.985	1.09	1.28	0.587	0.246	0.332	0.288	0.23	0.37
LOU-NH91	0.481	0.478	0.485	0.466	0.453	0.956	0.961	0.956	0.95	0.821	0.807	0.8	0.852	0.821	0.776
LU99A	1.15	1.21	1.31	1.07	0.451	0.862	0.767	0.833	0.861	0.431	0.873	0.967	0.922	0.931	0.963
LXF-289	0.994	1.03	0.915	0.917	0.648	1	0.942	0.879	0.961	0.641	0.347	0.361	0.443	0.396	0.346
NCI-H23	1.12	1.01	0.805	0.887	0.551	0.989	0.967	0.768	0.773	0.588	0.282	0.305	0.292	0.317	0.311
NCI-H322M	1.36	1.46	1.28	1.38	1.11	1.05	0.985	0.952	1.02	0.829	0.741	0.739	0.801	0.935	0.672
NCI-H358						0.538	0.472	0.373	0.466	0.323	0.213	0.213	0.266	0.207	0.227
NCI-H441	0.733	0.47	0.973	0.454	0.441	0.94	0.962	0.896	0.901	0.846	0.236	0.215	0.234	0.225	0.254
NCI-H460	1.18	1.13	0.8	0.994	0.952	0.978	0.996	0.974	1.02	0.54	0.578	0.477	0.503	0.382	0.298
NCI-H520	0.732	0.476	0.502	0.591	0.571	0.834	0.7	0.76	0.802	0.631	0.567	0.513	0.537	0.531	0.531
NCI-H522											0.704	0.569	0.664	0.726	0.677
NCI-H596	1	1.03	1.09	1.09	1.27	0.867	1.05	0.913	0.905	0.991	1.26	0.87	1.17	1.04	0.971
NCI-H647	0.984	0.905	0.903	0.947	1.28	1.02	1.28	1.36	1.29	1.05	0.391	0.44	0.374	0.309	0.349
NCI-H1299	1.07	1.13	1.19	1.25	1.04	1.12	1.3	1.3	1.24	0.58					
NCI-H1395						0.996	0.967	0.974	1	0.939	0.699	0.791	0.789	0.801	0.71
NCI-H1563	0.898	0.856	0.894	0.855	0.95	0.957	0.997	0.944	0.963	0.953					
NCI-H1623						0.848	0.829	0.62	0.764	0.498					
NCI-H1648											0.516	0.436	0.443	0.665	0.476
NCI-H1703	0.266	0.207	0.203	0.166	0.224	0.327	0.41	0.415	0.302	0.413					
NCI-H1792	1.06	0.925	0.857	0.923	0.555							0.536	0.498	0.58	0.518
NCI-H1793						0.669	0.83	0.787	0.487	0.384	0.474	0.424	0.477	0.453	0.51
NCI-H1944						0.943	0.842	0.69	0.757	0.604	0.393	0.421	0.419	0.366	
NCI-H2170						0.992	1.07	1.03	1.07	0.913	0.487	0.466	0.43	0.5	0.398
NCI-H2228	0.936	1.03	0.909	0.963	0.929	0.72	0.806	0.811	0.722	0.532					
NCI-H2342						1.08	1.01	1.16	1.24	1.12	0.744	0.724	0.718	0.77	0.715
SK-MES-1						0.837	0.894	0.801	0.771	0.846	0.361	0.444	0.447	0.351	0.339
SW 900						0.931	0.874	0.971	0.685	0.619	0.37	0.475	0.491	0.412	0.413
